pKi: −log10 of the molar value.

For the test, the target named is T1, Progesterone receptor (Homo sapiens, UniProt P06401).
T1 sequence (P06401 whole entry): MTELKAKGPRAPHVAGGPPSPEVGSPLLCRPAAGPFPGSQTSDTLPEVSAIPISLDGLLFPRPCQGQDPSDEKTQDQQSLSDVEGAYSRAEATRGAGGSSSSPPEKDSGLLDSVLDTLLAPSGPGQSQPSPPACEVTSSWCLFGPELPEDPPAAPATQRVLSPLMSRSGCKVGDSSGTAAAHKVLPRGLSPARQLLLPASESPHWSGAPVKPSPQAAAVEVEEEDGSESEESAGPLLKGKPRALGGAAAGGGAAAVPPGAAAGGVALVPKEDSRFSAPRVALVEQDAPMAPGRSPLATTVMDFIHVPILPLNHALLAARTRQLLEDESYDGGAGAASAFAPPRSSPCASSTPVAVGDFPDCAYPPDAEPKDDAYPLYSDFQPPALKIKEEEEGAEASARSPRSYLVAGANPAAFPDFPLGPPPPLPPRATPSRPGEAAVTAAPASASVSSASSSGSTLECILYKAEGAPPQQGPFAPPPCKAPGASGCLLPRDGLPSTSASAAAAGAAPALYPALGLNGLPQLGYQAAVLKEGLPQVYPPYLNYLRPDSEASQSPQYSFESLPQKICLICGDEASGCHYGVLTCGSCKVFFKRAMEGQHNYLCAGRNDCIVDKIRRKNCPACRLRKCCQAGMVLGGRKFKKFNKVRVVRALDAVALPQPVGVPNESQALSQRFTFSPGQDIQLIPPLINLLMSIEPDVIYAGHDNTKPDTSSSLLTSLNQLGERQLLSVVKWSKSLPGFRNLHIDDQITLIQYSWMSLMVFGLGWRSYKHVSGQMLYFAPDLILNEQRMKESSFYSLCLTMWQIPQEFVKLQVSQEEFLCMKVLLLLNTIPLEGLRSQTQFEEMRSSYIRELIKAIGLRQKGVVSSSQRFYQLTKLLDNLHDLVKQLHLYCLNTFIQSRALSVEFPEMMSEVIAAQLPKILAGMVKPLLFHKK
The test is described as follows: Binding affinity for human progesterone receptor; […].

By pKi is commonly meant the Ki on a negative log10 scale, so that one unit is a factor of ten. Consider `CC(C)=C/C=C1\Oc2ccc(F)cc2-c2ccc3c(c21)C(C)=CC(C)(C)N3`, for which the pKi is 8.60.

The values are drawn from ChEMBL document CHEMBL1136068 (Bioorg Med Chem Lett, 2003).
